{
  "source": "patent US20250255981A1",
  "about": "“IMMUNOMODULATORY ANTIBODY-DRUG CONJUGATES” (Seagen Inc., priority 2022, published 2025)",
  "data": [
    {"test_system": "THP1-Dual™ cells (IRF-Lucia luciferase reporter)", "assay": "THP1-Dual™ cell reporter assay", "assay_type": "cell-based, human", "details": "ADC: drug linker conjugated to targeted mAb, 48 h; some values average of multiple experiments", "protocol": "Potency of compounds and ADCs was evaluated using the THP1-Dual™ cells (Invivogen PN: thpd-nfis [also referred to as THP1 dual reporter cells]), which contain an IRF-Lucia luciferase reporter. Cells were cultured in RPMI-1640 (Gibco) with 10% heat-inactivated fetal bovine serum, Pen-Strep (100 U/mL-100 […], Gibco), HEPES (10 mM, Gibco)), sodium pyruvate (1 mM, Gibco), MEM non-essential amino acids (1×, Gibco), GlutaMAX (1×, Gibco), and beta-mercaptoethanol (55 μM, Gibco). Cells were plated in a 96-well flat bottom tissue culture-treated clear polystyrene plate (Corning Costar #3596) at ˜100,000 cells per well in 200 μL with the indicated concentration of the compound or ADC. The supernatant was harvested at 24 hours (compounds) or 48 hours (ADC) post plating for the reporter assay, or as indicated. To measure Lucia reporter signal, 10 µL of the supernatant was combined with 40 µL of QUANTI-Luc™ Luminescence assay reagent (Invivogen PN: rep-qlc1) in a 96-well clear flat bottom tissue culture-treated black polystyrene plate (Corning Costar #3603) and read on a Perkin Elmer Envision plate reader.", "values": [
      {"molecule": "CCn1nc(C)cc1C(=O)Nc1nc2cc(C(N)=O)cc(OC)c2n1C/C=C/Cn1c(NC(=O)c2cccnn2)nc2cc(C(N)=O)cc(OCCCN(C)C(=O)CCN3C(=O)C=CC3=O)c21", "note": "[compound 96]", "EC50, Lucia reporter signal": ">10,000 ng/mL"},
      {"molecule": "CCn1nc(C)cc1C(=O)Nc1nc2cc(C(N)=O)cc(OC)c2n1C/C=C/Cn1c(NC(=O)c2ccnnc2)nc2cc(C(N)=O)cc(OCCCN(C)C(=O)CCN3C(=O)C=CC3=O)c21", "note": "[compound 98]", "EC50, Lucia reporter signal": ">10,000 ng/mL"},
      {"molecule": "CCn1nc(C)cc1C(=O)Nc1nc2cc(C(N)=O)cc(OC)c2n1C/C=C/Cn1c(NC(=O)c2ncccn2)nc2cc(C(N)=O)cc(OCCCN(C)C(=O)CCN3C(=O)C=CC3=O)c21", "note": "[compound 101]", "EC50, Lucia reporter signal": ">10,000 ng/mL"},
      {"molecule": "CCn1cc(C(=O)Nc2nc3cc(C(N)=O)cc(OCCCN(C)C(=O)CCN4C(=O)C=CC4=O)c3n2C/C=C/Cn2c(NC(=O)c3cc(C)nn3CC)nc3cc(C(N)=O)cc(OC)c32)c(C)n1", "note": "[compound 102]", "EC50, Lucia reporter signal": ">10,000 ng/mL"},
      {"molecule": "CCn1cc(C)nc1C(=O)Nc1nc2cc(C(N)=O)cc(OCCCN(C)C(=O)CCN3C(=O)C=CC3=O)c2n1C/C=C/Cn1c(NC(=O)c2cc(C)nn2CC)nc2cc(C(N)=O)cc(OC)c21", "note": "[compound 103]", "EC50, Lucia reporter signal": ">10,000 ng/mL"},
      {"molecule": "CCc1cc(C(=O)Nc2nc3cc(C(N)=O)cc(OCCCN(C)C(=O)CCN4C(=O)C=CC4=O)c3n2C/C=C/Cn2c(NC(=O)c3cc(C)nn3CC)nc3cc(C(N)=O)cc(OC)c32)n(C)n1", "note": "[compound 104]", "EC50, Lucia reporter signal": ">10,000 ng/mL"},
      {"molecule": "CCn1nc(C)cc1C(=O)Nc1nc2cc(C(N)=O)cc(OC)c2n1C/C=C/Cn1c(NC(=O)c2cc(C)nn2C)nc2cc(C(N)=O)cc(OCCCN(C)C(=O)CCN3C(=O)C=CC3=O)c21", "note": "[compound 105]", "EC50, Lucia reporter signal": "52.5 ng/mL"},
      {"molecule": "CCc1oc(C)cc1C(=O)Nc1nc2cc(C(N)=O)cc(OCCCN(C)C(=O)CCN3C(=O)C=CC3=O)c2n1C/C=C/Cn1c(NC(=O)c2cc(C)nn2CC)nc2cc(C(N)=O)cc(OC)c21", "note": "[compound 106]", "EC50, Lucia reporter signal": ">10,000 ng/mL"},
      {"molecule": "CCn1nc(C)cc1C(=O)Nc1nc2cc(C(N)=O)cc(OC)c2n1C/C=C/Cn1c(NC(=O)c2cc(C)sn2)nc2cc(C(N)=O)cc(OCCCN(C)C(=O)CCN3C(=O)C=CC3=O)c21", "note": "[compound 107]", "EC50, Lucia reporter signal": ">10,000 ng/mL"},
      {"molecule": "CCn1nc(C)cc1C(=O)Nc1nc2cc(C(N)=O)cc(OC)c2n1C/C=C/Cn1c(NC(=O)c2ccnn2CC)nc2cc(C(N)=O)cc(OCCCN(C)C(=O)CCN3C(=O)C=CC3=O)c21", "note": "[compound 108]", "EC50, Lucia reporter signal": "63.5 ng/mL"},
      {"molecule": "CCn1nc(C)cc1C(=O)Nc1nc2cc(C(N)=O)cc(OC)c2n1C/C=C/Cn1c(NC(=O)c2cc(C(F)(F)F)nn2CC)nc2cc(C(N)=O)cc(OCCCN(C)C(=O)CCN3C(=O)C=CC3=O)c21", "note": "[compound 109]", "EC50, Lucia reporter signal": ">10,000 ng/mL"},
      {"molecule": "CCn1nc(C)cc1C(=O)Nc1nc2cc(C(N)=O)cc(OC)c2n1C/C=C/Cn1c(NC(=O)c2c(C)cnn2C)nc2cc(C(N)=O)cc(OCCCN(C)C(=O)CCN3C(=O)C=CC3=O)c21", "note": "[compound 110]", "EC50, Lucia reporter signal": ">10,000 ng/mL"},
      {"molecule": "CCc1nc(C)sc1C(=O)Nc1nc2cc(C(N)=O)cc(OCCCN(C)C(=O)CCN3C(=O)C=CC3=O)c2n1C/C=C/Cn1c(NC(=O)c2cc(C)nn2CC)nc2cc(C(N)=O)cc(OC)c21", "note": "[compound 111]", "EC50, Lucia reporter signal": "13.2 ng/mL"},
      {"molecule": "CCc1nc(C)oc1C(=O)Nc1nc2cc(C(N)=O)cc(OCCCN(C)C(=O)CCN3C(=O)C=CC3=O)c2n1C/C=C/Cn1c(NC(=O)c2cc(C)nn2CC)nc2cc(C(N)=O)cc(OC)c21", "note": "[compound 112]", "EC50, Lucia reporter signal": "2 ng/mL"},
      {"molecule": "CCn1nc(C)cc1C(=O)Nc1nc2cc(C(N)=O)cc(OC)c2n1C/C=C/Cn1c(NC(=O)c2cc(C)nn2CC)nc2cc(C(N)=O)cc(OCCCN(C)C(=O)[C@H](CC(C)C)NC(=O)CCN3C(=O)C=CC3=O)c21", "note": "[compound 121]", "EC50, Lucia reporter signal": "3.0 ng/mL"},
      {"molecule": "CCn1nc(C)cc1C(=O)Nc1nc2cc(C(N)=O)cc(OC)c2n1C/C=C/Cn1c(NC(=O)c2cc(C)nn2CC)nc2cc(C(N)=O)cc(OCCCN(C)C(=O)[C@H](Cc3ccccc3)NC(=O)CCN3C(=O)C=CC3=O)c21", "note": "[compound 122]", "EC50, Lucia reporter signal": "5.6 ng/mL"},
      {"molecule": "CCn1nc(C)cc1C(=O)Nc1nc2cc(C(N)=O)cc(OC)c2n1C/C=C/Cn1c(NC(=O)c2cc(C)nn2CC)nc2cc(C(N)=O)cc(OCCCN(C)C(=O)[C@H](CCC(=O)OC)NC(=O)CCN3C(=O)C=CC3=O)c21", "note": "[compound 123]", "EC50, Lucia reporter signal": "1.6 ng/mL"},
      {"molecule": "CCn1nc(C)cc1C(=O)Nc1nc2cc(C(N)=O)cc(OC)c2n1C/C=C/Cn1c(NC(=O)c2cc(C)nn2CC)nc2cc(C(N)=O)cc(OCCCN(C)C(=O)[C@H](Cc3ccc(OC)cc3)NC(=O)CCN3C(=O)C=CC3=O)c21", "note": "[compound 124]", "EC50, Lucia reporter signal": "9.1 ng/mL"},
      {"molecule": "CCn1nc(C)cc1C(=O)Nc1nc2cc(C(N)=O)cc(OC)c2n1C/C=C/Cn1c(NC(=O)c2cc(C)nn2CC)nc2cc(C(N)=O)cc(OCCCN(C)C(=O)[C@@H](NC(=O)CCN3C(=O)C=CC3=O)[C@@H](C)OC)c21", "note": "[compound 125]", "EC50, Lucia reporter signal": "1.4 ng/mL"},
      {"molecule": "CCn1nc(C)cc1C(=O)Nc1nc2cc(C(=O)O)cc(OC)c2n1C/C=C/Cn1c(NC(=O)c2cc(C)nn2CC)nc2cc(C(N)=O)cc(OCCCN(C)C(=O)CCN3C(=O)C=CC3=O)c21", "note": "[compound 126, (E)-1-(4-(5-carbamoyl-7-(3-(3-(2,5-dioxo-2,5-dihydro-1H-pyrrol-1-yl)-N-methylpropanamido)propoxy)-2-(1-ethyl-3-methyl-1H-pyrazole-5-carboxamido)-1H-benzo[d]imidazol-1-yl)but-2-en-1-yl)-2-(1-ethyl-3-methyl-1H-pyrazole-5-carboxamido)-7-methoxy-1H-benzo[d]imidazole-5-carboxylic acid]", "EC50, Lucia reporter signal": ">10,000 ng/mL"},
      {"molecule": "CCn1nc(C)cc1C(=O)Nc1nc2cc(S(=O)(=O)NC)ccc2n1C/C=C/Cn1c(NC(=O)c2cc(C)nn2CC)nc2cc(C(N)=O)cc(OCCCN(C)C(=O)CCN3C(=O)C=CC3=O)c21", "note": "[compound 128, (E)-7-(3-(3-(2,5-dioxo-2,5-dihydro-1H-pyrrol-1-yl)-N-methylpropanamido)propoxy)-2-(1-ethyl-3-methyl-H-pyrazole-5-carboxamido)-1-(4-(2-(1-ethyl-3-methyl-1H-pyrazole-5-carboxamido)-5-(N-methylsulfamoyl)-1H-benzo[d]imidazol-1-yl)but-2-en-1-yl)-1H-benzo[d]imidazole-5-carboxamide]", "EC50, Lucia reporter signal": ">10,000 ng/mL"},
      {"molecule": "CCn1nc(C)cc1C(=O)Nc1nc2cc(C(N)=O)cc(OC)c2n1C/C=C/Cn1c(NC(=O)c2cc(C)nn2CC)nc2cc(C(N)=O)cc(OCCCN(C(=O)CCN3C(=O)C=CC3=O)C3CC3)c21", "note": "[compound 133, (E)-1-(4-(5-carbamoyl-2-(1-ethyl-3-methyl-1H-pyrazole-5-carboxamido)-7-methoxy-1H-benzo[d]imidazol-1-yl)but-2-en-1-yl)-7-(3-(N-cyclopropyl-3-(2,5-dioxo-2,5-dihydro-1H-pyrrol-1-yl)propanamido)propoxy)-2-(1-ethyl-3-methyl-1H-pyrazole-5-carboxamido)-1H-benzo[d]imidazole-5-carboxamide]", "EC50, Lucia reporter signal": "12.2 ng/mL"},
      {"molecule": "CCn1nc(C)cc1C(=O)Nc1nc2cc(C(N)=O)cc(OC)c2n1C/C=C/Cn1c(NC(=O)c2cc(C)nn2CC)nc2cc(C(N)=O)cc(OCCC[N+](C)(C)Cc3ccc(O[C@@H]4O[C@H](C(=O)O)[C@@H](O)[C@H](O)[C@H]4O)cc3NC(=O)CCNC(=O)CCN3C(=O)C=CC3=O)c21.O=C([O-])C(F)(F)F", "note": "[compound 134]", "EC50, Lucia reporter signal": "10.3 ng/mL"},
      {"molecule": "CCn1nc(C)cc1C(=O)Nc1nc2cc(S(N)(=O)=O)ccc2n1C/C=C/Cn1c(NC(=O)c2cc(C)nn2CC)nc2cc(C(N)=O)cc(OCCCOC3CN(C(=O)CCN4C(=O)C=CC4=O)C3)c21", "note": "[compound 146, (E)-7-(3-((1-(3-(2,5-dioxo-2,5-dihydro-1H-pyrrol-1-yl)propanoyl)azetidin-3-yl)oxy)propoxy)-2-(1-ethyl-3-methyl-1H-pyrazole-5-carboxamido)-1-(4-(2-(1-ethyl-3-methyl-1H-pyrazole-5-carboxamido)-5-sulfamoyl-1H-benzo[d]imidazol-1-yl)but-2-en-1-yl)-1H-benzo[d]imidazole-5-carboxamide]", "EC50, Lucia reporter signal": ">10,000 ng/mL"},
      {"molecule": "CCn1nc(C)cc1C(=O)Nc1nc2cc(S(N)(=O)=O)ccc2n1C/C=C/Cn1c(NC(=O)c2cc(C)nn2C)nc2cc(C(N)=O)cc(OCCCOC3CN(C(=O)CCN4C(=O)C=CC4=O)C3)c21", "note": "[compound 147, (E)-2-(1,3-dimethyl-1H-pyrazole-5-carboxamido)-7-(3-((1-(3-(2,5-dioxo-2,5-dihydro-1H-pyrrol-1-yl)propanoyl)azetidin-3-yl)oxy)propoxy)-1-(4-(2-(1-ethyl-3-methyl-1H-pyrazole-5-carboxamido)-5-sulfamoyl-1H-benzo[d]imidazol-1-yl)but-2-en-1-yl)-1H-benzo[d]imidazole-5-carboxamide]", "EC50, Lucia reporter signal": ">10,000 ng/mL"},
      {"molecule": "CCn1nc(C)cc1C(=O)Nc1nc2cc(S(N)(=O)=O)ccc2n1C/C=C/Cn1c(NC(=O)c2cc(C)nn2C)nc2cc(C(N)=O)cc(OCCCN(C)C(=O)CCN3C(=O)C=CC3=O)c21", "note": "[compound 148, (E)-2-(1,3-dimethyl-1H-pyrazole-5-carboxamido)-7-(3-(3-(2,5-dioxo-2,5-dihydro-1H-pyrrol-1-yl)-N-methylpropanamido)propoxy)-1-(4-(2-(1-ethyl-3-methyl-1H-pyrazole-5-carboxamido)-5-sulfamoyl-1H-benzo[d]imidazol-1-yl)but-2-en-1-yl)-1H-benzo[d]imidazole-5-carboxamide]", "EC50, Lucia reporter signal": ">10,000 ng/mL"}
    ]}
  ]
}
